Active and inactive are the calls of the source. The rule behind the calls is not given here.
Test system: L5178Y
Assay: Cytotoxicity against mouse L5178Y cells by MTT assay
Format: functional, cell-based

For `CC(/C=C/C(N)=O)=C\[C@H](C)CC(=O)O`, which Activity is on record?
The Activity was “inactive”.

Which Activity does the source give for `CCCCCC[C@@H](C)/C=C(C)/C=C/C(=O)N[C@H]1C[C@]2(OC1O)[C@@H]1O[C@@H]1C(O)[C@@H]1O[C@@H]12` (some centres not stated) here?
Its Activity is “inactive”.

With `CCCCCC[C@@H](C)/C=C(C)/C=C/C(=O)N[C@H]1C[C@]2(OC1O)[C@@H]1O[C@@H]1C(=O)[C@@H]1O[C@@H]12` (some centres not stated) as the molecule, how does the IC50 read?
Its IC50 is 0.58 µM.

How did the Activity turn out when `CC(/C=C/C(=O)NC(Cc1ccc(O)cc1)C(=O)O)=C\[C@H](C)CC(=O)O` (mixture of isomers) was run?
Its Activity is “inactive”.

Which Activity does the source give for `CC(/C=C/C(=O)NC(CO)Cc1ccc(O)cc1)=C\C(C)CC(=O)O` (mixture of isomers) here?
The Activity was “inactive”.

`CC(/C=C/C(=O)NC(Cc1ccc(O)cc1)C(=O)O)=C\[C@H](C)CCCCCCO` (mixture of isomers) was tested. Which Activity did it give?
Its Activity is “inactive”.

How did the IC50 turn out when `CCCCCC[C@@H](C)/C=C(C)/C=C/C(=O)N[C@H]1C[C@]2(C=C(Cl)C(=O)[C@H](Cl)[C@H]2O)O[C@H]1OC` was run?
The IC50 was 5.8 µM.

How did the IC50 turn out when `CCCCCC[C@@H](C)/C=C(C)/C=C/C(=O)N[C@H]1CC2(C=C(Cl)C(=O)C(Cl)=C2)OC1O` (some centres not stated) was run?
Its IC50 is 0.64 µM.

For `CC(/C=C/C(=O)NC(Cc1ccc(O)cc1)C(=O)O)=C\[C@H](C)CCCCCC(=O)O` (mixture of isomers), which Activity is on record?
The Activity was “inactive”.

How did the Activity turn out when `CCCCCC[C@@H](C)/C=C(C)/C=C/C(N)=O` was run?
Its Activity is “inactive”.

For `CCCCCC[C@@H](C)/C=C(C)/C=C/C(=O)N[C@H]1C[C@]2(OC1O)[C@@H]1O[C@@H]1C(O)(CC(C)=O)[C@@H]1O[C@@H]12` (some centres not stated), which Activity is on record?
The Activity was “inactive”.

For `CCCCCC[C@@H](C)/C=C(C)/C=C/C(=O)N[C@H]1C[C@]2(O[C@H]1OC)[C@@H]1O[C@@H]1C(=O)[C@@H]1O[C@@H]12`, which IC50 is on record?
The IC50 was 0.44 µM.

Reference: ChEMBL document CHEMBL3400014, “Cytotoxic acyl amides from the soil fungus Gymnascella dankaliensis” (Bioorg Med Chem, 2015)
